{"source": "patent US9925176B2", "about": "“Sodium channel blocker delivery system with scleral lens” (Boston Foundation for Sight, priority 2009, dated 2018)", "key": {"cornea": {"tested_on": "cornea", "conditions": "proparacaine 0.05%, after photorefractive keratectomy, Shahinian et al.; cited from earlier work"}, "corneal neuropathic pain [1]": {"tested_on": "corneal neuropathic pain", "assay": "Treatment of corneal pain with drug solution in the fluid reservoir of a scleral lens (BOS-P)", "type": "in vivo, human", "experimental": "(§1) A patient with well-established primary Sjögren's syndrome and severe dry eyes was treated for intense, constant corneal pain using the anesthetic delivery system disclosed herein. Specifically, the patient was treated with bupivacaine and BOS-P devices. The concentration of non-preserved bupivacaine was rapidly titrated using frequent (every 2-5 minutes) drops in the more symptomatic left eye (open label) measuring corneal sensitivity with a Cochet-Bonnet aesthesiometer (with adequate recovery times) until reaching the concentration that avoided any depression of corneal sensitivity. The sub-anesthetic concentration in this patient was determined to be 0.001%. Both BOS-P devices were filled with 0.001% bupivacaine and inserted into the patient's eyes. The patient then left.\nThe patient was given a vial of 0.01% bupivacaine to dilute 1:10 (e.g., add one drop of 0.01% bupivacaine to nine drops of saline) to fill the reservoir of the left lens prior to inserting it the next morning.\n(§2) They wore the BOS-P containing 0.001% bupivacaine in their left eye, and the BOS-P containing saline in their right eye unmasked to the patient and doctor, for about 8 hours. […] Corneal sensation in the treated eye was normal.\nThe fluid compartments of both BOS-P lenses were filled with non-preserved bupivacaine at a concentration of 0.002%, and the BOS-P lenses with bupivacaine were worn at least 12 hours/day. […] Eye symptoms were also resolved after the bupivacaine was diluted to 0.0014%.\nA patient suffered from Stevens-Johnson syndrome for about 25 years, complicated by scarring of the lids and corneas of both eyes. The patient was fitted with scleral lens with marked mitigation of eye pain for 2 years following which the patient experienced increasingly disabling eye pain and photosensitivity that was refractory to all available treatments and required high daily doses of opioids to control. Three drops of ropivacaine 0.04% were mixed with 5 drops of saline in the reservoirs of both of the patient's scleral lenses, yielding a solution of 0.015% ropivacaine.\nThe patient returned the following day 2 hours after inserting the scleral lenses containing 0.015% ropivacaine. […]\nA patient underwent a bone marrow stem cell transplant for leukemia and subsequently developed severe dry eyes secondary to chronic graft versus host disease. They were fitted with a scleral lens that eliminated the severe burning pain in their right eye but continued to experienced knife-like and severe aching pain in their left eye and disabling photosensitivity while wearing the scleral lens. This persisted for 15 months. All eye and co-morbid pain symptoms disappeared when the lens was worn with its fluid reservoir filled with sterile, non-preserved lacosamide 0.05%."}, "corneal sensitivity": {"tested_on": "corneal sensitivity", "assay": "Corneal sensitivity by Cochet-Bonnet aesthesiometry", "type": "in vivo, human", "description": "The sub-hypoesthetic dose for a sodium channel blocker or a sodium channel modulator may vary between patients. […] The sub-hypoesthetic dose of a sodium channel blocker or a sodium channel modulator can be determined for an individual patient by selecting a higher starting concentration and gradually reducing the concentration via titration until reaching a sub-hypoesthetic dose as determined by a contact and non-contact esthesiometer. A non-limiting example of a method of determining corneal sensitivity is Cochet-Bonnet aesthesiometry.\nAs used herein, the phrases “sub-anesthetic dose” and “sub-anesthetic concentration” refer to a dose of a sodium channel blocker or a sodium channel modulator or a sodium channel modulator that is lower than the anesthetic dose. “Sub-anesthetic dose” and “sub-anesthetic concentration” may be used interchangeably. The sub-anesthetic dose of a sodium channel blocker or a sodium channel modulator may vary between patients. The sub-anesthetic dose of a sodium channel blocker or a sodium channel modulator can be determined for an individual patient by selecting a higher starting concentration and gradually reducing the concentration via titration until reaching a sub-anesthetic dose as determined by a contact and non-contact esthesiometer. A non-limiting example of a starting concentration of a sodium channel blocker or a sodium channel modulator is about 0.02%. In some embodiments, the concentration of the sodium channel blocker or a sodium channel modulator may be titrated down to a concentration that avoids any depression of corneal sensitivity. A non-limiting example of a method of determining corneal sensitivity is Cochet-Bonnet aesthesiometry.\nas §1, with “Both BOS-P devices were filled with 0.001% bupivacaine and inserted into the patient's eyes.” left out"}, "corneas": {"tested_on": "corneas", "assay": "Ocular safety examination (fluorescein staining, slit lamp, confocal microscopy)", "type": "in vivo, human", "experimental": "as §2\nThe patient returned the following day 2 hours after inserting the scleral lenses containing 0.015% ropivacaine.\nA patient suffered from severe corneal neuropathic pain for many years, greatly limiting the patient's quality of life. This disease was refractory to previous treatments. Lacosamide was placed in the fluid reservoir of the device where it remained in contact with the cornea while it was worn (approximately 10 hours/day)."}, "corneal neuropathic pain [2]": {"tested_on": "corneal neuropathic pain", "assay": "Lacosamide eye drops without scleral lens for corneal neuropathic pain", "type": "in vivo, human", "conditions": "Example 5, eye drops with 0.5% lacosamide", "experimental": "Eye drops containing 0.5% lacosamide were administered to the eyes of two patients and to the an eye of the inventor. […] Therefore, it is believed that lacosamide may be used in eye drops at a concentration of up to 5% to treat corneal neuropathic pain without depressing corneal sensation."}, "[3]": {"conditions": "Example 3, ropivacaine in scleral lenses, continued use"}}, "data": [{"smiles": "CCCOc1ccc(C(=O)OCCN(CC)CC)cc1N", "note": "[Proparacaine]", "values": [{"measurement": "anesthetic effect", "setting": "cornea", "result": "non-anesthetic"}, {"measurement": "toxicity and safety", "setting": "cornea", "result": "non-toxic, and safe for at least one week of use"}]}, {"smiles": "CCCCN1CCCCC1C(=O)Nc1c(C)cccc1C", "note": "(stereo not shown) [bupivacaine]", "values": [{"measurement": "eye comfort reported by patient", "setting": "corneal neuropathic pain [1]; Example 1, both BOS-P filled with 0.001% bupivacaine, next day", "result": "both eyes felt more comfortable than they had been in 3 months"}, {"measurement": "pain reported at day's end", "setting": "corneal neuropathic pain [1]; Example 1, second day, left lens reservoir filled with non-preserved bupivacaine", "result": "virtual absence of pain in either eye"}, {"measurement": "pain after exposure to glass cleaner or white board marker", "setting": "corneal neuropathic pain [1]; Example 1, second day, triggers that ordinarily cause severe pain", "result": "little or no pain"}, {"measurement": "pain reported after about 8 hours of wear", "setting": "corneal neuropathic pain [1]; Example 1, third day, BOS-P with 0.001% bupivacaine in left eye, saline in right eye", "result": "virtually no pain in either eye"}, {"measurement": "pain with the Visual Analog Scale", "setting": "corneal neuropathic pain [1]; Example 1, third day, on arrival", "result": "virtually no pain in either eye"}, {"measurement": "eye symptoms", "setting": "corneal neuropathic pain [1]; Example 2, bupivacaine diluted to 0.0014%", "result": "resolved"}, {"measurement": "eye symptoms (photosensitivity, burning pain, inability to read)", "setting": "corneal neuropathic pain [1]; Example 2, post cosmetic lid surgery, 0.002% bupivacaine in both BOS-P, at least 12 hours/day, several weeks", "result": "resolved"}, {"measurement": "corneal sensitivity during wear", "setting": "corneal sensitivity; Example 1, 0.001% bupivacaine in left lens, verified periodically during the day", "result": "absence of depressed corneal sensitivity"}, {"measurement": "corneal sensation in the treated eye", "setting": "corneal sensitivity; Example 1, after about 8 hours of BOS-P with 0.001% bupivacaine", "result": "normal"}, {"measurement": "corneal sensation", "setting": "corneal sensitivity; Example 2, 0.002% bupivacaine in BOS-P, several weeks", "result": "remained intact"}, {"measurement": "fluorescein staining", "setting": "corneas; in vivo", "result": "no significant fluorescein staining"}]}, {"smiles": "COC[C@@H](NC(C)=O)C(=O)NCc1ccccc1", "note": "[lacosamide]", "values": [{"measurement": "eye and co-morbid pain symptoms", "setting": "corneal neuropathic pain [1]; Example 6, chronic graft versus host disease dry eye, scleral lens reservoir filled with lacosamide 0.05%", "result": "disappeared"}, {"measurement": "corneal sensation", "setting": "corneal sensitivity; Example 5, eye drops with 0.5% lacosamide, two patients and the inventor", "result": "did not depress corneal sensation"}, {"measurement": "detrimental effects to the corneas", "setting": "corneas; Example 4, 0.003% lacosamide in BOS-P, slit lamp examination and confocal microscopy", "result": "without any detrimental effects"}, {"measurement": "duration of effect, one patient", "setting": "corneal neuropathic pain [2]", "result": "over four"}, {"measurement": "duration of effect, other patient", "setting": "corneal neuropathic pain [2]", "result": "over two"}, {"measurement": "onset of pain resolution", "setting": "corneal neuropathic pain [2]", "result": "almost immediately after administration"}, {"measurement": "corneal neuropathic pain", "setting": "corneal neuropathic pain [2]; both patients", "result": "complete resolution"}]}, {"smiles": "CCCN1CCCC[C@H]1C(=O)Nc1c(C)cccc1C", "note": "[ropivacaine]", "values": [{"measurement": "eye pain and photophobia, lenses worn until midnight", "setting": "corneal neuropathic pain [1]; Example 3, 0.015% ropivacaine, first day", "result": "total resolution"}, {"measurement": "eye pain and photosensitivity following application", "setting": "corneal neuropathic pain [1]; Example 3, Stevens-Johnson syndrome, 0.015% ropivacaine in both scleral lenses", "result": "rapid mitigation"}, {"measurement": "symptoms at the time of examination", "setting": "corneal neuropathic pain [1]; Example 3, following day, 2 hours after inserting lenses with 0.015% ropivacaine", "result": "free of symptoms"}, {"measurement": "eye pain and photophobia at subsequent examinations", "setting": "corneal neuropathic pain [1]; [3]", "result": "significant mitigation"}, {"measurement": "corneal sensitivity", "setting": "corneal sensitivity; Example 3, 0.015% ropivacaine, following day", "result": "normal"}, {"measurement": "corneal sensitivities at subsequent examinations", "setting": "corneal sensitivity; [3]", "result": "normal"}, {"measurement": "adverse effects from the treatment", "setting": "corneas; in vivo", "result": "no adverse effects"}, {"measurement": "treatment-related complications at subsequent examinations", "setting": "corneas; in vivo", "result": "without adverse treatment-related complications"}]}]}
